These results are taken from ChEMBL document CHEMBL1149987, “Synthesis and biological evaluation of new arachidonic acid analogs” (Bioorg Med Chem Lett, 1994).

In experiment [1] the target is T1, Polyunsaturated fatty acid 5-lipoxygenase (Homo sapiens, UniProt P09917).
T1 sequence (P09917 whole entry): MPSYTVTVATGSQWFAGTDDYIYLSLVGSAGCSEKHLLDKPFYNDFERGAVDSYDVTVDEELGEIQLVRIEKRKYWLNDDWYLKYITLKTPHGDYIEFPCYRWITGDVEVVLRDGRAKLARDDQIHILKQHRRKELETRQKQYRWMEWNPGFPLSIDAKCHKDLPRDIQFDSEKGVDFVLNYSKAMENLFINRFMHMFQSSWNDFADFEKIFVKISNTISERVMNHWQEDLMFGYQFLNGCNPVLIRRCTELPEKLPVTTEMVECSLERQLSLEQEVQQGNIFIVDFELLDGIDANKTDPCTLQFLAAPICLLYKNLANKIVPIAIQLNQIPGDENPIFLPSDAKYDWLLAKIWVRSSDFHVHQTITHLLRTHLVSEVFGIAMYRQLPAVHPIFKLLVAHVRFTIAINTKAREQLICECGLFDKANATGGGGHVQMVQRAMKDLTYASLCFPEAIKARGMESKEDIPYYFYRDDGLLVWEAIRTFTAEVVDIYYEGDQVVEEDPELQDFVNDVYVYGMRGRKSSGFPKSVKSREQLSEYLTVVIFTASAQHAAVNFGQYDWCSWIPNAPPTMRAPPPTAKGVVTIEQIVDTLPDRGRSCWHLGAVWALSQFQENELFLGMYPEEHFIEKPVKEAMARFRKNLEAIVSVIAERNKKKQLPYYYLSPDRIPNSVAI
The experiment is described as follows: Compound was tested for the inhibition of 5-lipoxygenase of human PMN stimulated by calcium ionophore A-23187 for the formation of leukotriene B4 (LTB4).

Experiment [2] addresses T1, Polyunsaturated fatty acid 5-lipoxygenase. The experiment is described as follows: Compound was tested for the inhibition of 5-lipoxygenase of human PMN stimulated by calcium ionophore A-23187 for the formation of 5-HETE.

Regarding `CCCCC/C=C\C/C=C\[C@H]1CC(C)=C(C)C[C@H]1/C=C\C/C=C\CCCC(=O)O`, the figures for the IC50 in experiment [1] and in experiment [2] were 1.9 µM and 1.1 µM, respectively.
For `CCCCC/C=C\C/C=C\[C@@H]1C[C@H]1/C=C\C/C=C\CCCC(=O)O` (stereo in doubt; (-)-7a) the same measures were 2.4 µM and 1.7 µM.
For `CCCCC/C=C\C/C=C\[C@@H]1C[C@H]1/C=C\C/C=C\CCCC(=O)O` (stereo in doubt; (+)-7a) the same measures were 2.8 µM and 2.9 µM.
On to `CCCCC/C=C\C/C=C\[C@@H]1CC(C)=C(C)C[C@H]1/C=C\C/C=C\CCCC(=O)O`, for which the IC50 in experiment [1] turned out to be 1.6 µM; in experiment [2] it was 1 µM.
